Where two headings read alike, the source gives them in different places.
Assays:
tubulin = test: Fluorescence-based tubulin polymerization assay; format: biochemical; details: purified tubulin, fluorescent reporter, vs DMSO control
Experimental: Tubulin polymerization in vitro was analyzed using the fluorescence-based tubulin polymerization assay (Cytoskeleton, Inc.), according to the manufacturer’s guidelines. Fluorescence was read on a SaFire II microplate reader (Tecan).

primary cortical neurons = test: Neurite outgrowth assay; format: cell-based, Sprague-Dawley rat; details: Primary cortical neuron, rat primary cortical neurons, 72 hours
Experimental: Neurite outgrowth assay was performed by Fluofarma (Pessac, France). Primary cortical neurons were harvested from E19 Sprague-Dawley (Janvier Labs) rat embryos, dissociated and plated at 10,000 per well in a tissue-culture treated 96 well plate, in neuronal medium (SM2 matrix independent growth medium, Stem Cell Technologies). Neurons were followed by phase contrast imaging with 1 image acquired every 4 hours, using an Incucyte Zoom (Essen BioScience) with a 20x objective. Four fields per well were acquired. After 24 hours, cells were treated with test compounds and neurite outgrowth was followed for 72 hours post-treatment. All measures were performed in triplicate in one experiment.
Neurite outgrowth kinetics were analyzed from each phase contrast image using the Neurotrack module of the Incucyte Zoom platform. Neurite length and branch points were obtained for each time point. The area under the curve (AUC) was calculated in each experimental condition (GraphPad Prism 6, GraphPad Software).

[1] = read-out: IC50 for branch point formation
[2] = read-out: IC50 for neurite length

## CC[C@]1(O)C[C@@H]2CN(CCc3c([nH]c4ccccc34)[C@@](C(=O)OC)(c3cc4c(cc3OC)N(C)[C@H]3[C@@](O)(C(=O)OC)[C@H](OC(C)=O)[C@]5(CC)C=CCN6CC[C@]43[C@@H]65)C2)C1 [vinblastine, reference compound]
tubulin
  effect on tubulin polymerization in vitro: marked decrease in final polymer formation
Primary cortical neurons; [1]
  IC50: 0.7 nM
Primary cortical neurons; [2]
  IC50: 0.9 nM

## CC[C@]1(O)C[C@H]2CN(CCc3c([nH]c4ccccc34)[C@@](C(=O)OC)(c3cc4c(cc3OC)N(C=O)[C@H]3[C@@](O)(C(=O)OC)[C@H](OC(C)=O)[C@]5(CC)C=CCN6CC[C@]43[C@@H]65)C2)C1 [vincristine, reference compound]
Primary cortical neurons; [1]
  IC50: 0.2 nM
Primary cortical neurons; [2]
  IC50: 0.2 nM

From PMC11542830, “3-nitropyridine analogues as novel microtubule-targeting agents” (PLOS ONE, 2024)
